Data taken from patent publication US8969395B2, “Triterpenoid derivatives useful as antiproliferative agents” (Universidade de Coimbra, priority 2009, dated 2015).

How the values were obtained:
Format in all cases: cell-based
Details in all cases: 72 h, mean ±SD
[1] = system: HeLa (human cervical adenocarcinoma); assay: Cytotoxic activity, MTT assay, HeLa
Procedure: (§1) The cytotoxic of compounds of formulas (I) and (II) 14-50 was assessed towards human cancer (HepG2, HeLa and Jurkat) cell lines (Table 3 below). Compounds presented on Table 4 were also tested against a non-tumoral liver cell line (Chang liver). The cell viability of HeLa, HepG2 and Chang liver cells was determined by the MTT assay. Briefly, exponentially growing cells were plated in 96-well plates at a density of 1×10^3, 8×10^3 and 5×10^3 cells/well respectively and incubated for 24 h before treatment. The grown medium was replaced with one contained the tested compounds dissolved in DMSO (final DMSO concentration <0.1%) at different concentrations, in triplicate wells, and cells were incubated for 72 h. After incubation with the compounds, the medium was removed and MTT solution (0.5 mg/ml, 100 μl) was added to each well and the plates were incubated again for 1 h. DMSO (100 μl) was then added to dissolve the formazan crystals and the plates were immediately read at 550 nm on an ELISA plate reader (Tecan Sunrise MR20-301, TECAN, Austria). For the Jurkat cells, the cell viability was determined by the XTT assay. Briefly, exponentially growing cells were plated in 96-well plates at a density of 5.5×10^3 cells/well, treated with different concentrations of compounds in triplicate and incubated for 72 h. After incubation with the compounds the XTT labeling mixture (100 μl) were added to each of the wells and after a 4 h incubation period the plates were read at 450 nm on an ELISA plate reader. […] Known for its cytotoxic activity, betulinic acid 2 was used as a positive control in this experimentation.

[2] = system: HepG2 (human hepatocellular carcinoma); assay: Cytotoxic activity, MTT assay, HepG2
Procedure: as §1, with “experimentation. […] All the IC50 results represent an average of a minimum of three experiments and were expressed as means±standard deviation (SD).” for “experimentation.”

[3] = system: Jurkat (human leukemia); assay: Cytotoxic activity, XTT assay, Jurkat
Procedure: as §1, with “experimentation. […] All the IC50 results represent an average of a minimum of three experiments and were expressed as means±standard deviation (SD).” for “experimentation.”

[4] = system: Chang liver (human normal liver cells); assay: Cytotoxic activity against non-tumoral cell line, MTT assay
Procedure: as §1, with “experimentation. […] All the IC50 results represent an average of a minimum of three experiments and were expressed as means±standard deviation (SD).” for “experimentation.”

Structure (SMILES): C=C(C)[C@@H]1CC[C@]2(COC(=O)n3cncn3)CC[C@]3(C)[C@H](CC[C@@H]4[C@@]5(C)CC[C@H](O)C(C)(C)[C@@H]5CC[C@]43C)[C@@H]12 [Compound 16, 3β-hydroxy-lup-20(29)-en-28-yl-1H-triazole-1-carboxylate]
- IC50 [1]: 15.2 ± 2.1 µM

Structure (SMILES): C=C(C)[C@@H]1CC[C@]2(COC(=O)n3ccnc3C)CC[C@]3(C)[C@H](CC[C@@H]4[C@@]5(C)CC[C@H](OC(=O)n6ccnc6C)C(C)(C)[C@@H]5CC[C@]43C)[C@@H]12 [Compound 18, Lup-20(29)-en-3β,28-di-yl-(2′-methyl-1H-imidazole-1-carboxylate)]
- IC50 [2]: > 30 µM
- IC50 [3]: > 30 µM
- IC50 [1]: > 30 µM

Structure (SMILES): C=C(C)C1CCC2(COC(=O)n3cncn3)CCC3(C)C(CCC4C5(C)CCC(OC(=O)n6cncn6)C(C)(C)C5CCC43C)C12 (stereo not drawn) [Compound 19, Lup-20(29)-en-3β,28-di-yl-(1H-triazole-1-carboxylate)]
- IC50 [1]: > 30 µM

Structure (SMILES): C=C(C)[C@@H]1CC[C@]2(CO)CC[C@]3(C)[C@H](CC[C@@H]4[C@@]5(C)CC[C@H](OC(=O)n6cncn6)C(C)(C)[C@@H]5CC[C@]43C)[C@@H]12 [Compound 21, 28-hydroxy-lup-20(29)-en-3β-yl-1H-triazole-1-carboxylate]
- IC50 [1]: 11.3 ± 1.9 µM

Structure (SMILES): C=C(C)[C@@H]1CC[C@]2(COC(=O)n3ccnc3)CC[C@]3(C)[C@H](CC[C@@H]4[C@@]5(C)CC[C@H](OC(C)=O)C(C)(C)[C@@H]5CC[C@]43C)[C@@H]12 [Compound 22, 3β-acetoxy-lup-20(29)-en-28-yl-1H-imidazole-1-carboxylate]
- IC50 [2]: > 30 µM
- IC50 [3]: > 30 µM
- IC50 [1]: > 30 µM

Structure (SMILES): C=C(C)[C@@H]1CC[C@]2(COC(=O)n3ccnc3C)CC[C@]3(C)[C@H](CC[C@@H]4[C@@]5(C)CC[C@H](OC(C)=O)C(C)(C)[C@@H]5CC[C@]43C)[C@@H]12 [Compound 23, 3β-acetoxy-lup-20(29)-en-28-yl-2′-methyl-1H-imidazole-1-carboxylate]
- IC50 [2]: > 30 µM
- IC50 [3]: > 30 µM
- IC50 [1]: > 30 µM

Structure (SMILES): C=C(C)[C@@H]1CC[C@]2(COC(=O)n3cncn3)CC[C@]3(C)[C@H](CC[C@@H]4[C@@]5(C)CC[C@H](OC(C)=O)C(C)(C)[C@@H]5CC[C@]43C)[C@@H]12 [Compound 24, 3β-acetoxy-lup-20(29)-en-28-yl-1H-triazole-1-carboxylate]
- IC50 [1]: 23.2 ± 2.1 µM

Structure (SMILES): C=C(C)[C@@H]1CC[C@]2(COC(C)=O)CC[C@]3(C)[C@H](CC[C@@H]4[C@@]5(C)CC[C@H](OC(=O)n6ccnc6)C(C)(C)[C@@H]5CC[C@]43C)[C@@H]12 [Compound 25, 28-acetoxy-lup-20(29)-en-3β-yl-1H-imidazole-1-carboxylate]
- IC50 [2]: > 30 µM
- IC50 [3]: > 30 µM
- IC50 [1]: > 30 µM

Structure (SMILES): C=C(C)[C@@H]1CC[C@]2(COC(C)=O)CC[C@]3(C)[C@H](CC[C@@H]4[C@@]5(C)CC[C@H](OC(=O)n6ccnc6C)C(C)(C)[C@@H]5CC[C@]43C)[C@@H]12 [Compound 26, 28-acetoxy-lup-20(29)-en-3β-yl-2′-methyl-1H-imidazole-1-carboxylate]
- IC50 [2]: > 30 µM
- IC50 [3]: > 30 µM
- IC50 [1]: > 30 µM

Structure (SMILES): C=C(C)C1CCC2(COC(C)=O)CCC3(C)C(CCC4C5(C)CCC(OC(=O)n6cncn6)C(C)(C)C5CCC43C)C12 (stereo not drawn) [Compound 27, 28-acetoxy-lup-20(29)-en-3β-yl-1H-triazole-1-carboxylate]
- IC50 [1]: > 30 µM

Structure (SMILES): C=C(C)C1CCC2(C(=O)n3cncn3)CCC3(C)C(CCC4C5(C)CCC(OC(=O)n6cncn6)C(C)(C)C5CCC43C)C12 (stereo not drawn) [Compound 32, 28-(1H-triazole-1-yl)-28-oxo-lup-20(29)-en-3β-yl-1H-triazole-1-carboxylate]
- IC50 [1]: 14.5 ± 3.2 µM

Structure (SMILES): C=C(C)[C@@H]1CC[C@]2(C(=O)OC)CC[C@]3(C)[C@H](CC[C@@H]4[C@@]5(C)CC[C@H](OC(=O)n6ccnc6)C(C)(C)[C@@H]5CC[C@]43C)[C@@H]12 [Compound 33, Methyl 3β-(1H-imidazole-1-carbonyloxy)-lup-20(29)-en-28-oate]
- IC50 [2]: 4.3 ± 0.1 µM
- IC50 [3]: 9.9 ± 0.6 µM
- IC50 [1]: 8.2 ± 0.5 µM
- IC50 [4]: 73.9 ± 3.6 µM

Structure (SMILES): C=C(COC)[C@@H]1CC[C@]2(COC(=O)n3cncn3)CC[C@]3(C)[C@H](CC[C@@H]4[C@@]5(C)CC[C@H](O)C(C)(C)[C@@H]5CC[C@]43C)[C@@H]12 [Compound 37, 3β-hydroxy-30-methoxylup-20(29)-en-28-yl-1H-triazole-1-carboxylate]
- IC50 [1]: 13.8 ± 2.3 µM

Structure (SMILES): C=C(COC)[C@@H]1CC[C@]2(COC(=O)n3ccnc3C)CC[C@]3(C)[C@H](CC[C@@H]4[C@@]5(C)CC[C@H](OC(=O)n6ccnc6C)C(C)(C)[C@@H]5CC[C@]43C)[C@@H]12 [Compound 39, 30-methoxylup-20(29)-en-3β,28-di-yl-(2′-methyl-1H-imidazole-1-carboxylate)]
- IC50 [2]: 28.2 ± 2.5 µM
- IC50 [3]: > 30 µM
- IC50 [1]: 13.4 ± 0.6 µM

Structure (SMILES): C=C(COC)C1CCC2(COC(=O)n3cncn3)CCC3(C)C(CCC4C5(C)CCC(OC(=O)n6cncn6)C(C)(C)C5CCC43C)C12 (stereo not drawn) [Compound 40, 30-methoxylup-20(29)-en-3β,28-di-yl-(1H-triazole-1-carboxylate)]
- IC50 [1]: > 30 µM

Structure (SMILES): C=C(C)[C@@H]1CC[C@]2(C(=O)n3ccnc3)CC[C@]3(C)[C@H](CC[C@@H]4[C@@]5(C)C=C(O)C(=O)C(C)(C)[C@@H]5CC[C@]43C)[C@@H]12 [Compound 48, 2-hydroxy-28-(1H-imidazol-1-yl)-lup-1,20(29)-dien-3,28-dione]
- IC50 [2]: 6.5 ± 0.4 µM
- IC50 [3]: 7 ± 1.6 µM
- IC50 [1]: 4.6 ± 0.7 µM
- IC50 [4]: 62.8 ± 10.3 µM

Structure (SMILES): C=C(C)[C@@H]1CC[C@]2(C(=O)n3ccnc3)CC[C@]3(C)[C@H](CC[C@@H]4[C@@]5(C)C=C(OC(=O)n6ccnc6)C(=O)C(C)(C)[C@@H]5CC[C@]43C)[C@@H]12 [Compound 49, 2-(1H-imidazole-1-carbonyloxy)-28-(1H-imidazol-1-yl)-lup-1,20(29)-dien-3,28-dione]
- IC50 [2]: 4 ± 0.3 µM
- IC50 [3]: 8.1 ± 0.6 µM
- IC50 [1]: 3.9 ± 0.3 µM
- IC50 [4]: 71.6 ± 4.9 µM
